Results from paper PMC5431200, “Identification of Streptococcus cristatus peptides that repress expression of virulence genes in Porphyromonas gingivalis” (Scientific Reports, 2017).

How the values were obtained:
pgn0128 = pgn0128 (immunoreactive 53 kDa antigen) expression in P. gingivalis with ArcA peptides, real-time qRT-PCR; format: cell-based, Porphyromonas gingivalis 33277; conditions: peptide 16 µM; P. gingivalis 33277 grown TSB; real-time PCR mRNA level relative to absence of peptide = 1 unit; means and SD of three independent experiments
Protocol: (§1) P. gingivalis were homogenized in Trizol Reagent (Invitrogen, Carlsbad, CA) and RNA was purified using an RNeasy mini spin column (Qiagen, Valencia, CA). RNA samples were digested on-column with RNase-free DNase, and total RNA was tested using an Agilent 2100 Bioanalyzer to ensure the quality of the samples. Amplification reactions consisted of a reverse transcription using a Bio-Rad iScript Reverse Transcription Supermix on a TC-3000 thermal cycler (Techne, Staffordshire, ST15 OSA, UK) and a real-time qRT-PCR analysis using a QuantiTect SYBR Green RT-PCR Kit (Qiagen) on an iCycler MyiQ^TM Real-Time PCR detection system (Bio-Rad Laboratories, Inc, Hercules, CA) according to the manufacturer’s instructions. P. gingivalis 16 S rRNA gene was used as a normalizing gene. […] The expression levels of the investigated genes for the test sample were determined relative to the untreated calibrator sample by using the comparative cycle threshold (ΔC T) method. ΔC T was calculated by subtracting the average C T value of the test sample from the average C T value of the calibrator sample, and the value used to calculate the ratio between the two by assuming 100% amplification efficiency.
(§2) Peptides were resuspended in nuclease/proteinase-free PBS, aliquoted, and stored at −20 °C. Inhibitory activity of peptides were determined as described[16] with slight modification. Peptides were mixed with 5 × 10^5 cells of P. gingivalis, spotted onto a TSB blood agar plate, and cultured for 60 h anaerobically. The expression levels of fimbrial and gingipain mRNA or proteins were measured using qRT-PCR or western blot analyses.

[1] = test system: fimA, mfa1, kgp, rgpA/B, rgpA; experiment: Virulence gene expression in P. gingivalis with ArcA peptides, stated for the gene set, qRT-PCR; format: cell-based, Porphyromonas gingivalis 33277; conditions: peptide 16 µM (Table 1); at a lower efficiency than peptide4
Protocol: as §1, §2

rgpA = conditions: peptide 16 µM; P. gingivalis 33277 grown TSB; real-time PCR mRNA level relative to absence of peptide = 1 unit; means and SD of three independent experiments
Protocol: (§3) The IC50 for each gene was established using a Microsoft Excel program with add-in for curve fitting.
as §1, §2

kgp = conditions: peptide 16 µM; P. gingivalis 33277 grown TSB; real-time PCR mRNA level relative to absence of peptide = 1 unit; means and SD of three independent experiments
Protocol: as §3, §1, §2

mfa1 = conditions: peptide 16 µM; P. gingivalis 33277 grown TSB; real-time PCR mRNA level relative to absence of peptide = 1 unit; means and SD of three independent experiments
Protocol: as §3, §1, §2

rgpA/B = rgpA/B expression (catalytic regions of rgpA/B) in P. gingivalis with ArcA peptides, real-time qRT-PCR; format: cell-based, Porphyromonas gingivalis 33277; conditions: peptide 16 µM; P. gingivalis 33277 grown TSB; real-time PCR mRNA level relative to absence of peptide = 1 unit; means and SD of three independent experiments
Protocol: as §3, §1, §2

fimA = fimA expression in P. gingivalis with ArcA peptides, real-time qRT-PCR; format: cell-based, Porphyromonas gingivalis 33277; conditions: peptide 16 µM; P. gingivalis 33277 grown TSB; real-time PCR mRNA level relative to absence of peptide = 1 unit; means and SD of three independent experiments
Protocol: as §3, §1, §2

Substance	Relative expression level pgn0128 (pgn0128)	Inhibitory activity on virulence gene expression (in words) [1]	Relative expression level rgpA (rgpA)	Relative expression level kgp (kgp)	Relative expression level mfa1 (mfa1)	Relative expression level rgpA/B (rgpA/B)	Relative expression level fimA (fimA)
E389LVRGRGGPRCMSMPF [Peptide P5]	0.91 ± 0.06	some inhibitory activity	0.73 ± 0.06	0.96 ± 0.12	0.83 ± 0.04	0.72 ± 0.05	0.97 ± 0.05
I97RGRETKK [Peptide P1]	0.96 ± 0.06	some inhibitory activity	0.86 ± 0.07	1.06 ± 0.12	0.85 ± 0.05	0.89 ± 0.05	0.88 ± 0.08
V208YNREEDTRIEGGDEL [Peptide P3]	0.91 ± 0.07	some inhibitory activity	0.84 ± 0.06	0.99 ± 0.12	0.82 ± 0.07	0.98 ± 0.06	0.87 ± 0.10
